{"source": "patent US8198303B2", "about": "“Methods of use and compositions for the diagnosis and treatment of infectious diseases” (Sequella, Inc., priority 2002, dated 2012)", "origin": "cited, not measured here", "system": "M. tuberculosis", "details": "background statement on ethambutol"}
{"smiles": "CC[C@@H](CO)NCCN[C@@H](CC)CO", "note": "[ethambutol, Ethambutol]", "values": [{"measurement": "Minimum Inhibition Concentration (MIC)", "value": "about 5 μg/ml"}]}
